Values of other authors in US9795630B2, “Compositions and methods for inducing or enhancing connective tissue repair” (Glenpharma AB, priority 2009, dated 2017).

System: superficial digital flexor tendon injuries
Settings: horses; Dyson 1977/1997 & 2004

## N#CCCN.N#CCCN.O=C(O)/C=C/C(=O)O [BAPN, B-aminoproprionitrile fumarate]
  benefit of intralesional treatment (healing, recovery time, tendon repair) compared with controlled exercise alone: failed to show any benefit
